Earlier results as cited in patent publication US20160304829A1, “Automated Superparamagnetic Particle Handling System” (LIFE TECHNOLOGIES AS, priority 2006, published 2016).

Molecular target: streptavidin (Streptomyces avidinii, UniProt P22629)
Conditions: Piran & Riordan 1990

Sequence of streptavidin (P22629 25-183): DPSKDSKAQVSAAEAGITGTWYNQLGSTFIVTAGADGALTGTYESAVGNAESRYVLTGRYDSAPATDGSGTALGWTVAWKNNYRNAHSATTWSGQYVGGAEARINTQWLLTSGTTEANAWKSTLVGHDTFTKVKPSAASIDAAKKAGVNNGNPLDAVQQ

O=C(O)CCCC[C@@H]1SC[C@@H]2NC(=O)N[C@@H]21 [biotin, cis-hexahydro-2oxo-1H-thieno [3,4]imidazole-4-pentanoic acid]
dissociation from streptavidin, times faster than dissociation from avidin: about 30 times
